Reference: paper PMC6958422 (Pharmaceuticals, 2019)

Columns and labels:
hA2B AR = molecular target: T1, hA2B AR (Homo sapiens, UniProt P29275); assay: cAMP assay, stimulation of cAMP production in hA2B CHO cells (agonism); assay type: cell-based; settings: for Emax at 1 µM: CHO, compound at 1µM, in comparison with NECA (1µM = 100%), read-out: Efficacy hA2B (cAMP assays) (converted); for EC50: hA2B CHO cells, means ± SEM of four assays
T1 construct: expressed in transfected cells; host or cells: CHO cells
T1 sequence (P29275 1-332): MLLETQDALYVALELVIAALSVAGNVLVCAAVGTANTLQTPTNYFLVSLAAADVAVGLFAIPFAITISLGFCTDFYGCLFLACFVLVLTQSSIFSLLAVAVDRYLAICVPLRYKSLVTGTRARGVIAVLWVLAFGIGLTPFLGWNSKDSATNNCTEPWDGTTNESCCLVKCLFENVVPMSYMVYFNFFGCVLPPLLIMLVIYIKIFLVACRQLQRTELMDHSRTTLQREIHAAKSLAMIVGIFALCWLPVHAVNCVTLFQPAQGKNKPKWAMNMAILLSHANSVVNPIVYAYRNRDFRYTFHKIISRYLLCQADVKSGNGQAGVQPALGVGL
Protocol: The amino-3,5-dicyanopyridines 1–20 were tested for their affinity at hA1, hA2A, and hA3 ARs, stably transfected in Chinese Hamster Ovary (CHO) cells, and were also studied as hA2B agonists by evaluating their stimulatory effect on cAMP production in CHO cells, stably expressing the hA2B AR.
(§1) CHO cells transfected with hA1, hA2A, hA2B, and hA3 ARs were grown adherently and maintained in Dulbecco’s modified Eagle’s medium (Sigma-Aldrich, Milan, Italy) with nutrient mixture F12, containing 10% fetal calf serum, penicillin (100 U/mL), streptomycin (100 μg/mL), l-glutamine (2 mM) and geneticin (G418; 0.2 mg/mL) at 37°C in 5% CO2/95% air until the use in cAMP assays. For membrane preparation, the culture medium was removed, and the cells were washed with phosphate-buffered saline and scraped off T75 flasks in ice-cold hypotonic buffer (5 mM Tris HCl, 1 mM EDTA, pH 7.4). The cell suspension was homogenized with a Polytron, centrifuged for 30 min at 40000 g at 4°C, and the resulting membrane pellet was used for competition binding experiments.
CHO cells transfected with hAR subtypes were washed with phosphate-buffered saline, detached with trypsin and centrifuged for 10 min at 200 g. Cells were seeded in 96-well white half-area microplate (Perkin Elmer, Boston, USA) in a stimulation buffer composed of Hank Balanced Salt Solution (Sigma-Aldrich, Milan, Italy), 5 mM HEPES, 0.5 mM Ro 20-1724, and 0.1% BSA. cAMP levels were then quantified by using the AlphaScreen cAMP Detection Kit (Perkin Elmer) following the manufacturer’s instructions. At the end of the experiments, plates were read with the Perkin Elmer EnSight Multimode Plate Reader.

hA1 AR = molecular target: T2, hA1 AR (Homo sapiens, UniProt P30542); assay: [3H]DPCPX competition binding to hA1 CHO cell membranes; settings: for I% hA1: percentage of inhibition at 1µM, [3H]DPCPX
T2 construct: expressed in transfected cells; host or cells: CHO cells
T2 sequence (P30542 1-326): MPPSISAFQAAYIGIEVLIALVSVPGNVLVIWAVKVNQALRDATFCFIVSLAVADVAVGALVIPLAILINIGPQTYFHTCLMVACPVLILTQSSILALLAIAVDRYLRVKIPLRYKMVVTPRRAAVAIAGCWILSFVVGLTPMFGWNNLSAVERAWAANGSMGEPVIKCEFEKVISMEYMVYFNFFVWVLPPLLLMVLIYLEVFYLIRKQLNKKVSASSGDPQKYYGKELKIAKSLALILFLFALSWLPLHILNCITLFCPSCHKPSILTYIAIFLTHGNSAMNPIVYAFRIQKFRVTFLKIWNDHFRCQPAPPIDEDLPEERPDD
Protocol: as §1
(§2) All synthesized compounds have been tested for their affinity to hA1, hA2A, and hA3 ARs. Competition experiments to hA1 ARs were carried out incubating 1 nM [^3H]-8-cyclopentyl-1,3-dipropylxanthine ([^3H]-DPCPX) with membrane suspension (50 μg of protein/100 μL) and different concentrations of the examined compounds at 25°C for 90 min in 50 mM Tris HCl, pH 7.4. […] Inhibition experiments to hA2A ARs were performed incubating the radioligand [^3H]-ZM241385 (4-(2-[7-Amino-2-(2-furyl)[1,2,4]triazolo[2,3-a][1,3,5]triazin-5-ylamino]ethyl)phenol) (1 nM) with the membrane suspension (50 μg of protein/100 μL) and different concentrations of the examined compounds for 60 min at 4°C in 50 mM Tris HCl (pH 7.4), 10 mM MgCl2. Non-specific binding was determined in the presence of ZM241385 (1 μM) and was about 20% of the total binding. Competition binding experiments to A3 ARs were carried out incubating the membrane suspension (50 μg of protein/100 μL) with 0.5 nM [^125I]-N^6-(4-aminobenzyl)-N-methylcarboxamidoadenosine ([^125I]-ABMECA) in the presence of different concentration of the examined compounds for an incubation time of 120 min at 4°C in 50 mM Tris HCl (pH 7.4), 10 mM MgCl2, and 1 mM EDTA. Non-specific binding was defined as binding in the presence of 1μM ABMECA and was always < 10% of the total binding. Bound and free radioactivity were separated by filtering the assay mixture through Whatman GF/B glass fiber filters using a Brandel cell harvester (Brandel Instruments, Unterföhring, Germany). The filter bound radioactivity was counted by Packard Tri Carb 2810 TR scintillation counter (Perkin Elmer, Boston, MA, USA).
(§3) The protein concentration was determined according to a Bio-Rad method with bovine albumin as a standard reference. Inhibitory binding constant (Ki) values were calculated from those of IC50 according to Cheng & Prusoff equation Ki = IC50/(1+[C*]/KD*), where [C*] is the concentration of the radioligand and KD* its dissociation constant. Ki and IC50 values were calculated by non-linear regression analysis using the equation for a sigmoid concentration-response curve (Graph-PAD Prism, San Diego, CA, USA).

hA2A AR = molecular target: T3, hA2A AR (Homo sapiens, UniProt P29274); assay: [3H]ZM241385 competition binding to hA2A CHO cell membranes; settings: for I% hA2A: percentage of inhibition at 1µM, [3H]ZM241385; for Ki: [3H]ZM241385, hA2A CHO cells, means ± SEM
T3 construct: expressed in transfected cells; host or cells: CHO cells
Protocol: as §1, §2, §3

hA3 AR = molecular target: T4, hA3 AR (Homo sapiens, UniProt P0DMS8); assay: [125I]AB-MECA competition binding to hA3 CHO cell membranes; settings: for Ki: hA3 CHO cells, means ± SEM; for inhibition at 1 µM: percentage of inhibition at 1µM
T4 construct: expressed in transfected cells; host or cells: CHO cells
T4 sequence (P0DMS8 1-318): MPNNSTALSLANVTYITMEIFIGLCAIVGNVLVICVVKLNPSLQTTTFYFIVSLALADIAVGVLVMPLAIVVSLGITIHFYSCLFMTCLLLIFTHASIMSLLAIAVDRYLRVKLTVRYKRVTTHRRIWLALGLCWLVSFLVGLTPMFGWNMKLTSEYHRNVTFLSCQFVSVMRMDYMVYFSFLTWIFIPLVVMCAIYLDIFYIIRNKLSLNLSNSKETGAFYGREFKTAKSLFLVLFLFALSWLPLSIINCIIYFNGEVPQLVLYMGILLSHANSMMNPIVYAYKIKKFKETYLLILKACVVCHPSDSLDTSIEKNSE
Protocol: as §1, §2, §3

T3 sequence (P29274 whole entry): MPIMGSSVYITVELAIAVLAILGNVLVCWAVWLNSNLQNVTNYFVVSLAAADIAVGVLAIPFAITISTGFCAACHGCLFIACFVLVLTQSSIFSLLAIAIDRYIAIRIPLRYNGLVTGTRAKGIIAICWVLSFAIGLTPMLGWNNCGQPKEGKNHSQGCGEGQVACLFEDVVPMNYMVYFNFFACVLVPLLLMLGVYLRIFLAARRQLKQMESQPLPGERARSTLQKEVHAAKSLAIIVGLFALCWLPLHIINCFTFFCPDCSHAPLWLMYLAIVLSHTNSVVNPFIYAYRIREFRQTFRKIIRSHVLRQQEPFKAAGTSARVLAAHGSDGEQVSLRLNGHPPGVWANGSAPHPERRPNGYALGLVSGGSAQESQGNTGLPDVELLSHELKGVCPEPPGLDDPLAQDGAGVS

| Emax at 1 µM (hA2B AR) [%] | EC50 (hA2B AR) [µM] | I% hA1 (hA1 AR) [%] | I% hA2A (hA2A AR) [%] | Ki (hA3 AR) [µM] | melting point | inhibition at 1 µM (hA3 AR) [%] | Ki (hA1 AR) [µM] | Pharmacological profile at hA2BAR (hA2B AR; cAMP assay) | Ki (hA2A AR) [µM] | SMILES |
| --- | --- | --- | --- | --- | --- | --- | --- | --- | --- | --- |
| 12 | > 1 | 25 | 4 | 0.574 ± 0.046 | 214 to 216 °C |  |  |  |  | N#Cc1c(N)nc(SCc2ncc[nH]2)c(C#N)c1-c1ccc(OCC2CCC2)cc1 [Compound 1, 2-Amino-4-[4-(cyclobutylmethoxy)phenyl]-6-[(1H-imidazol-2-ylmethyl)sulfanyl]pyridine-3,5-dicarbonitrile] |
| 36 | 0.227 ± 0.021 | 26 | 1 |  | 230 to 232 °C | 1 |  |  |  | CC(C)COc1ccc(-c2c(C#N)c(N)nc(SCc3ncc[nH]3)c2C#N)cc1 [Compound 2, 2-Amino-6-[(1H-imidazol-2-ylmethyl)sulfanyl]-4-[4-(2-methylpropoxy)phenyl]pyridine-3,5-dicarbonitrile] |
| 14 | > 1 |  | 1 |  | 224 to 226 °C | 8 | 0.077 ± 0.006 |  |  | C=C(C)COc1ccc(-c2c(C#N)c(N)nc(SCc3ncc[nH]3)c2C#N)cc1 [Compound 4, 2-Amino-6-[(1H-imidazol-2-ylmethyl)sulfanyl]-4-{4-[(2-methylprop-2-en-1-yl)oxy]phenyl} pyridine-3,5-dicarbonitrile] |
| 100 | 0.012 ± 0.001 |  |  | 0.048 ± 0.004 | 275 to 278 °C |  | 0.083 ± 0.007 | full agonist profile | 0.038 ± 0.003 | CC(=O)Nc1ccc(-c2c(C#N)c(N)nc(SCc3ncc[nH]3)c2C#N)cc1 [Compound 6, N-(4-{2-Amino-3,5-dicyano-6-[(1H-imidazol-2-ylmethyl)sulfanyl]pyridin-4-yl}phenyl) acetamide] |
| 32 | 0.109 ± 0.012 |  |  | 0.85 ± 0.062 | 229 to 231 °C (dec.) |  | 0.03 ± 0.004 |  | 0.865 ± 0.068 | N#Cc1c(N)nc(SCc2ncc[nH]2)c(C#N)c1-c1ccc(Cl)cc1 [Compound 7, 2-Amino-4-(4-chlorophenyl)-6-[(1H-imidazol-2-ylmethyl)sulfanyl]pyridine-3,5-dicarbonitrile] |
| 4 | > 1 |  | 32 |  | 233 to 235 °C (dec.) | 21 | 0.419 ± 0.032 |  |  | N#Cc1c(N)nc(SCc2ncc[nH]2)c(C#N)c1-c1ccc(C(F)(F)F)cc1 [Compound 9, 2-Amino-6-[(1H-imidazol-2-ylmethyl)sulfanyl]-4-[4-(trifluoromethyl)phenyl]pyridine-3,5-dicarbonitrile] |
| 78 | 0.078 ± 0.006 |  |  | 0.212 ± 0.019 | 259 to 261 °C (dec.) |  | 0.00532 ± 0.00042 |  | 0.047 ± 0.004 | Cc1ccc(-c2c(C#N)c(N)nc(SCc3ncc[nH]3)c2C#N)cc1 [Compound 10, 2-[(1H-Imidazol-2-il)metiltio]-6-ammino-4(4-metilfenil)piridina-3,5-dicarbonitrile] |
| 44 | 0.26 ± 0.024 | 31 | 8 |  | 246 to 248 °C (dec.) | 1 |  |  |  | N#Cc1c(N)nc(SCc2ncc[nH]2)c(C#N)c1Cc1ccccc1 [Compound 12, 2-Amino-4-benzyl-6-[(1H-imidazol-2-ylmethyl)sulfanyl]pyridine-3,5-dicarbonitrile] |
| 1 | > 1 |  |  | 0.51 ± 0.053 | 267 to 269 °C (dec.) |  | 0.074 ± 0.008 |  | 0.331 ± 0.032 | Cc1c(C#N)c(N)nc(SCc2ncc[nH]2)c1C#N [Compound 13, 2-Amino-6-[(1H-imidazol-2-ylmethyl)sulfanyl]-4-methylpyridine-3,5-dicarbonitrile] |
| 1 | > 1 |  |  |  | 208 to 210 °C | 19 | 0.14 ± 0.012 |  | 0.115 ± 0.01 | N#Cc1c(N)nc(NCc2ncc[nH]2)c(C#N)c1-c1ccccc1 [Compound 14, 2-Amino-6-[(1H-imidazol-2-ylmethyl)amino]-4-phenylpyridine-3,5-dicarbonitrile] |
| 1 | > 1 |  | 1 |  | 230 to 231 °C | 1 | 0.943 ± 0.087 |  |  | N#Cc1c(N)nc(NCCO)c(C#N)c1-c1ccccc1 [Compound 15, 2-Amino-6-[(2-hydroxyethyl)amino]-4-phenylpyridine-3,5-dicarbonitrile] |
| 1 | > 1 | 1 | 1 |  |  | 1 |  |  |  | COc1ccc(CCNc2nc(N)c(C#N)c(-c3ccccc3)c2C#N)cc1 [Compound 16, 2-Amino-6-{[2-(4-methoxyphenyl)ethyl]amino}-4-phenylpyridine-3,5-dicarbonitrile] |
| 1 | > 1 | 27 | 1 |  | 253 to 255 °C | 25 |  |  |  | N#Cc1c(N)nc(-n2ccnc2)c(C#N)c1-c1ccccc1 [Compound 17, 2-Amino-6-(1H-imidazol-1-yl)-4-phenylpyridine-3,5-dicarbonitrile] |
| 1 | > 1 | 15 | 16 |  | 244 to 246 °C | 5 |  |  |  | N#Cc1cnc(N)c(C#N)c1-c1ccccc1 [Compound 18, 2-amino-4-phenylpyridine-3,5-dicarbonitrile] |
